Converted amounts (≈) assume the structure as drawn.

Here are results for five compounds from US10174348B2, “Bacteria engineered for ester production” (priority 2013, dated 2019).

Data set [1] relates to pyruvate dehydrogenase complex. The data set is described as follows: KDHC activity assay, negative control strain lysate. It counts as biochemical, E. coli. Conditions: 25 mM 2-keto acid, 30° C. As to the method: Cells were grown to an OD600 of ˜0.4 in 5 mL LB medium at 37° C., followed by adding 1 mM IPTG. Protein expression was performed at 30° C. for 2 h. Then 1.8 mL of cells were centrifuged at 16,000×g for 10 min, resuspended in 300 μL BugBuster Protein Extraction Reagent (Novagen), and incubated at room temperature for 20 min for cell lysis. Then samples were centrifuged for 20 min, 16,000×g, at 2° C. The soluble fractions were transferred to chilled 1.5 mL tubes, and the insoluble fractions were suspended in 200 μL BugBuster forming a slurry and kept on ice. KDHC activities were measured by following the conversion of 2-keto acids to acyl-CoA with NAD^+ at 340 nm at 30° C. using a Synergy H1 Hybrid Plate Reader (BioTek Instruments, Inc.). […] Protein concentrations were measured using 5× Advanced Protein Assay Reagent (Cytoskeleton Inc.). […]
To confirm the activity of KDHC, cell lysates from each strain were prepared and activity was tested in vitro with pyruvate, 2-ketovalerate, 2-ketoisovalerate, 3-methylketovalerate, or 4-methylketovalerate as substrate. Activity was measured by detecting the reduction of NAD^+ in the presence of CoA. […]

For another data set, the system named is AL2045. Conditions: AL2045 with the acetate assimilating pathway (ackA-pta); 10 g/L acetate. As to the method:
(§1) Growth of strains in culture medium containing 10 g/L glucose, 10 g/L acetate, or 10 g/L glucose and 10 g/L acetate was compared. Cells were grown at 37° C. on a rotary shaker (250 rpm). Overnight cultures were grown in 3 mL Luria Broth containing appropriate antibiotics. The overnight cultures were inoculated 1% in 5 mL M9 minimal media (containing appropriate antibiotics and 1 mM IPTG) and labeled carbon source in 15-ml screw-cap tubes.
(§2) Next, the growth of JCL260 and AL2045, which contains ΔaceEF with and without the acetate assimilating pathway (ackA-pta), was compared (FIG. 21).

In another data set the test system is JCL260. The following applies: JCL260 without the acetate assimilating pathway; 10 g/L acetate. As to the method: as §1, §2
The conditions of data set [2]: cited from earlier work.
A short description of data set [3]: Partitioning between hexadecane layer and culture during production. It counts as physicochemical. The following applies: equal volume of hexadecane over the culture. As to the method:
Cells were grown in 20 mL media in 250 mL screw-cap flasks at 37° C. until OD600 0.4, then 1 mM IPTG was added. […] Errors are SD (n=3). […] Then 20 mL of culture was transferred to a 250 mL screw-cap flask. […] The strong agitation at which the flask was shaking caused the hexadecane layer to become an emulsion with micelles of culture, but the majority of the culture layer underneath is discernible. The cultures were allowed to produce at 30° C. on a rotary shaker (250 rpm) for 24-96 h. […] For hexadecane layer assisted isobutyl acetate production, the centrifugation of the hexadecane samples separates the aqueous and hexadecane layer into two clear layers. […] The same volume of ethyl acetate (Sigma-Aldrich) as culture was added into the tubes to extract tetradecyl acetate and isobutyl isobutyrate after production at room temperature. These samples were mixed for 1 min and settled for 30 min on ice. The each sample was centrifuged with 20,000×g for 1 min. Then, 1 mL of supernatant was taken for GC analysis.

The next data set relates to E. coli JCL260. Nature of the data set: Effect of isobutyl acetate on E. coli growth (toxicity experiments). The following applies: 3 g L^−1 isobutyl acetate; JCL260, 30° C., M9P with 50 g L^−1 glucose. It counts as cell-based. The method, then: JCL260 was grown at 30° C. in 5 mL M9P media containing 50 g L^−1 glucose in 15 mL screw-cap tubes. Black Arrow indicates the time point when isobutyl acetate: none (light gray), 1 g L^−1 (black), or 3 g L^−1 (dark gray) was added into culture. Error bars are SD (n=3).
This strain produced 4.5-fold more isobutyl acetate (2.7 g L^−1) in the first 24 h compared to JCL260 (FIG. 12b-c). This production represents 60% of the theoretical maximum yield (0.42 g isobutyl acetate/g glucose).

`CCCC(=O)C(=O)O` [2-ketovalerate]: the “activity of negative control strain with 2-keto acid as substrate” value in data set [1] was determined as 30 nmol NADH/min/mg protein.

`CC(=O)O` [Acetate]: the “effect of acetate on growth” value in the data set on AL2045 is recorded as “enhanced the growth”; in the data set with JCL260, “inhibited the growth”. With `CC(C)COC(=O)C(C)C` [Isobutyl isobutyrate, isobutyl isobutyrate], the water solubility in data set [2] is 520 µg/mL (≈ 3.61 mM). As for `CC(C)CO` [isobutanol], the “remained in the culture” value in data set [3] is on record as 86%.

As for `CC(=O)OCC(C)C` [isobutyl acetate], the “E. coli growth in the presence of isobutyl acetate” value in the data set with E. coli JCL260 is reported as “unable to grow”. Besides, the “extracted into the hexadecane” value in data set [3] was 97%.
